Assays:
[1] = system: Yeast (Saccharomyces cerevisiae, Strain YPH499) mRNA transcripts; experiment: Yeast mRNA response profiles measured with DNA microarrays (transcript measurement); assay type: cell-based
Procedure: Experimental methods were described in Marton et al., 1998, Drug Target Validation And Identification of Secondary Drug Target Effects Using DNA Microarrays, NATURE-MEDICINE 4:1293-301, incorporated herein by reference for all purposes. Dose response curves are plotted only for about 50 genes with the largest responses. […] In this case, any concentration near or above about 1 μg/ml would be informative, and the choice could be refined based on knowledge of the significance of the set of genes that responds at the higher concentrations.
The following experimental methods were used for all the examples. Specific experimental design is described by the examples and their accompanying figures. The specific protocol was also described in Marton et al., 1998, Drug Target Validation And Identification of Secondary Drug Target Effects Using DNA Microarrays, NATURE-MEDICINE 4:1293-301.
Yeast (Saccharomyces cerevisiae, Strain YPH499, see, Sikorski and Hieter, 1989, A system of shuttle vectors and yeast host strains designated for efficient manipulation of DNA in Saccharomyces cerevisiae, Genetics 122:19-27) cells were grown in YAPD at 30° C. to an OD600 of 1.0 (±0.2), and total RNA prepared by breaking cells in phenol/chloroform and 0.1 % SDS by standard procedures (Ausubel et al., 1995, Current Protocols in Molecular Biology, Greene Publishing and Wiley-Interscience, New York, Ch. 13). Poly(A)^+ RNA was selected by affinity chromatography on oligo-dT cellulose (New England Biolabs) essentially as described in Sambrook et al. (Molecular Cloning—A Laboratory Manual (2nd Ed.), Vol. 1, Cold Spring Harbor Laboratory, Cold Spring Harbor, N.Y., 1989). […]
Fluorescently-labeled cDNAs (2-6 μg) are resuspended in 4×SSC plus 1 μg/μl tRNA as carrier and filtered using […] filters (Millipore, Bedford, Mass.). […] Microarrays were scanned with a fluorescence laser-scanning device as previously described (Schena et al., 1995, Science 270:467-470; Schena et al., 1995, Proc. Natl. Acad. Sci. USA 93:[…]) and the results (including the positions of perturbations) are recorded.

[2] = system: wild type yeast cells; settings: 10 micrograms/ml; Gari et al., 1997; cited from earlier work

## Clc1ccccc1C(c1ccccc1)(c1ccccc1)n1ccnc1 [Clotrimazole]
[1]; FIG. 4, overlap with effects of opposite sign
  relationship of the response profiles of Clotrimazole and Cyclosporin A: anti-correlation

## C=CC[C@@H]1/C=C(\C)C[C@H](C)C[C@H](OC)[C@H]2O[C@@](O)(C(=O)C(=O)N3CCCC[C@H]3C(=O)O[C@H](/C(C)=C/[C@@H]3CC[C@@H](O)[C@H](OC)C3)[C@H](C)[C@@H](O)CC1=O)[C@H](C)C[C@@H]2OC [FK506]
[1]; FIG. 1, dose response of about 50 genes with the largest responses
  concentration at which genes mediated by the primary target (calcineurin) reach saturation response: about 1 μg/ml
[1]; FK506 (1.6 μg/ml) vs Cyclosporin A (30 μg/ml), genes with significant up and down regulations at the 95% confidence level, FIG. 3
  correlation coefficient between the two drug response profiles: 0.86

## C[C@H]1c2cccc(O)c2C(=O)C2=C(O)[C@]3(O)C(=O)C(C(N)=O)=C(O)[C@@H](N(C)C)[C@@H]3[C@@H](O)[C@@H]21 [doxycycline]
[2]
  effect on the growth rate: no significant effect

— patent US6370478B1, “Methods for drug interaction prediction using biological response profiles” (Rosetta Inpharmatics, Inc., priority 1998, dated 2002)
